Measurements published in PubChem BioAssay AID2024 (Southern Research Specialized Biocontainment Screening …, 2009).
The source made the active and inactive calls. No rule for the calls is given here.

Test system: virus-infected cells, titer reduction, log titer change
Test: virus titer reduction by selected antiviral hits, confirmation, cell-based, 55 compounds from dose-response study (AID 2024)

SMILES | log titer change, negative = reduction (at 20 µM (top of the series)) | log titer change, negative = reduction (at 10 µM (top of the series))
Cc1ccc2oc(=O)c3cc(C(=O)NCCCN4CC(C)CC(C)C4)sc3c2c1 (stereo not drawn) | 0.31 (inactive) | 
O=C(Oc1ccccc1)c1ccc(-n2cnnn2)cc1 | -0.73 (inactive) | 
CC1CCCN(CCCNC(=O)c2cc3c(s2)-c2ccccc2OC3)C1 (stereo not drawn) | -0.41 (inactive) | 
Cc1cccn2c(=O)c3cc(C(=O)NCCN4CCOCC4)c(=N)n(Cc4ccc(F)cc4)c3nc12 | -0.03 (inactive) | 
CCCN(CCC)CCCNC(=S)Nc1ccc2nc(N3CCCC3)cc(C)c2c1 | -0.33 (inactive) | 
Cc1ccc2cc(C#N)c(N3CCCN(C(=S)NCCCN(C)C)CC3)nc2c1 | -0.02 (inactive) | 
Cc1cc(C)cc(SCc2noc(C(=O)NCCN(C)C)c2C(=O)NCCN(C)C)c1 | -0.17 (inactive) | 
CC1CCN(CCCNC(=O)c2cc3c(s2)-c2ccccc2OC3)CC1 | 0.43 (inactive) | 
CCN1CCN(c2ncc(C(=O)Nc3cc(Cl)c(OC)cc3OC)c3ccccc23)CC1 | -0.17 (inactive) | 
Cc1ccc2[nH]c(=O)c(CN(CCCN(C)C)C(=O)Nc3ccc(Cl)cc3)cc2c1 | -2.15 | 
Cc1ccc(-c2cc(C(=O)NCCCN3CCCC3)c3ccccc3n2)cc1C | 0.19 (inactive) | 
CN(C)CCCN1c2ccc([N+](=O)[O-])cc2CCc2cc([N+](=O)[O-])ccc21 | 0 (inactive) | 
Brc1ccc2c(c1)CN1CCCC1=N2 | -1.9 | 
CCCN1CCN(CCCNC(=O)c2cc3c(s2)-c2ccccc2OC3)CC1 | 0 (inactive) | 
CCN(CC)CCCNC(=O)c1cc2c(-c3cccc(OC)c3)nn(C)c2s1 | 0.93 (inactive) | 
CN(C)CCCNC(=O)c1cc2sc3ccccc3c2s1 | -0.17 (inactive) | 
COc1ccc(C2c3c(ncn(CCN4CCOCC4)c3=N)Oc3ccc4ccccc4c32)cc1 (stereo not drawn) | 0.93 (inactive) | 
CCN(CC)CCNC(=O)c1sc2ncn(CC(=O)Nc3ccc(C)c(Cl)c3)c(=O)c2c1C |  | 0.5 (inactive)
CCN(CC)CCNC(=O)C1CCN(S(=O)(=O)c2c(C)noc2/C=C/c2ccccc2F)CC1 | 0.27 (inactive) | 
CN1CCN(CCNC(=O)c2ccc3nc(-c4ccc(F)cc4)c(-c4ccc(F)cc4)nc3c2)CC1 | -0.03 (inactive) | 
Cc1ccc(C)c(N2CCN(CCCNC(=O)CCC(=O)N3CCOc4ccc(Cl)cc43)CC2)c1 | -0.03 (inactive) | 
CCN(CC)CCCC(C)NC(=O)c1c(NC(=O)c2ccccc2)sc2c1CCCC2 (stereo not drawn) | 0.55 (inactive) | 
COc1cc2c(OC(C)=O)c3c(c(-c4ccc5c(c4)OCO5)c2cc1OC)C(=O)OC3 | -2 | 
CCN(CC)CCn1c(=N)n(CC(=O)c2ccc(Br)s2)c2ccccc21 | 0.31 (inactive) | 
CCN(CC)CCCNC(=S)N1CCN(c2nc(-c3ccccc3)cs2)CC1 | -0.57 (inactive) | 
COc1ccc(-c2csc(N(CCCN(C)C)C(=O)c3ccccc3Cl)n2)cc1 | -1.5 | 
CC1=CC(C)(C)N2C(=O)C3(NCCc4c3[nH]c3ccccc43)c3cc(C)cc1c32 (stereo not drawn) |  | -1.27

SMILES | log titer change, negative = reduction (at 20 µM (top of the series)) | log titer change, negative = reduction (at 10 µM (top of the series))
CCOc1ccc(/C=C/c2nc(C#N)c(NCCCN(C)C)o2)cc1 | 0.31 (inactive) | 
O=C(CSc1nc2ccccc2c(=O)n1-c1ccc(F)cc1)Nc1ccc2c(c1)CCC2 | -0.69 (inactive) | 
CCOc1ccc(NC(=O)c2c(NC(=O)CN3CCN(C)CC3)sc3c2CCC3)cc1 | 0 (inactive) | 
CC1CCCC(C)N1CCCNC(=O)c1cc2c(s1)-c1ccccc1OC2 (stereo not drawn) | 0.43 (inactive) | 
Cc1c(Cc2ccccc2)c(NCCN(C)C)n2c(nc3ccccc32)c1C#N | 0.43 (inactive) | 
CCN1CCN(CCCNC(=O)c2cc3c(s2)-c2ccccc2OC3)CC1 |  | -0.5 (inactive)
Cn1c(=O)[nH]c(=O)c2c1nc(N1CCN(C(c3ccccc3)c3ccccc3)CC1)n2CCO |  | -1.17
CC(C)c1oc(=O)cc2c1[C@@H](O)[C@H]1OC(=O)[C@@]3(C)CC[C@@H](O)[C@@]2(C)C13 (stereo partly drawn) | -1.17 | 
N=C1C(c2nc(-c3ccc(Cl)cc3)cs2)=C(O)CN1CCCN1CCOCC1 | 1.48 (inactive) | 
COc1cc(CNC(C)(C)CO)cc(Br)c1OCc1ccc(Cl)cc1 | 0.27 (inactive) | 
COc1ccc(C2c3ccc4ccccc4c3Oc3ncn(CCCO)c(=N)c32)cc1OC (stereo not drawn) | 0.54 (inactive) | 
CN(CCCNC(=O)c1cc2c(Cl)nc3ccccc3c2s1)Cc1ccccc1 | 0.43 (inactive) | 
CC[C@@H](C(=O)[C@@H](C)[C@@H](O)[C@H](C)CCc1ccc(C)c(O)c1C(=O)O)[C@H]1O[C@](CC)([C@H]2CC[C@](O)(CC)[C@H](C)O2)C[C@@H]1C | 0.14 (inactive) | 
CN(C)CCCNC(=S)N1CCN(c2nc(-c3ccccc3)cs2)CC1 | -0.02 (inactive) | 
CC(C)c1oc(=O)cc2c1[C@@H](O)[C@H]1OC(=O)[C@@]3(C)C[C@@H](O)[C@@H](O)[C@@]2(C)C13 (stereo partly drawn) | -0.25 (inactive) | 
CN1CCN(CCCN2c3ccccc3Sc3ccc(Cl)cc32)CC1 | -0.64 (inactive) | 
COc1ccc(C2c3ccc4ccccc4c3Oc3ncn(CCO)c(=N)c32)cc1 (stereo not drawn) | 0.39 (inactive) | 
CCN1CCN(CCCNC(=O)C2CCCN(c3nc4c(C)cc(C)cc4s3)C2)CC1 (stereo not drawn) | -0.36 (inactive) | 
CN(C)CC(O)COc1ccc(C(C)(C)c2ccc(OCC(O)CN(C)C)cc2)cc1 (stereo not drawn) | -1.17 | 
NCCCNc1nc(N)c([N+](=O)[O-])c(NC2CCCCC2)n1 | -4.74 | 
O=C(CN1C(=O)/C(=C/c2ccc(C(F)(F)F)cc2)Sc2ccccc21)NCCCN1CCOCC1 | -0.16 (inactive) | 
CN(C)CCCN(C(=O)c1ccc2c(c1)OCCO2)c1nc2ccc(Cl)cc2s1 | -0.33 (inactive) | 
O=C(CSc1nc2ccccc2c(=O)n1-c1ccc(F)cc1F)Nc1ccc2c(c1)CCC2 | -2.18 | 
CCN1CCN(CCCNC(=O)c2ccc3c(Cl)c4c(nc3c2)CCCC4)CC1 | -0.02 (inactive) | 
Cc1c(NC(=O)COC(=O)c2cc(-c3ccc(-c4ccccc4)cc3)nc3ccccc23)c(=O)n(-c2ccccc2)n1C | 0.31 (inactive) | 
CCOC(=O)c1c(CN2CCN(CCO)CC2)n(-c2ccccc2)c2cc(Br)c(O)cc12 | -0.07 (inactive) | 
